According to patent publication US20230085307A1, “PYRIDAZINONE COMPOUND AND HERBICIDE” (NISSAN CHEMICAL CORPORATION, priority 2019, published 2023):

What was measured:
false cleavers = assay: Test Example 5: herbicidal effect by foliage application, plastic box (Table 20, symbol Q); assay type: in vivo, false cleavers (Galium spurium); settings: 320 g/ha, evaluated three weeks after application; for herbicidal effect on Q: false cleavers (criteria 0-5): foliage application
Method in brief: (§1)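 Sow seeds spot-wise in sterilized diluvial soil; cover with ~1.5 cm soil. Grow 14 days in greenhouse, 25° C. to 30° C. Spray foliage with emulsion diluted to predetermined amount. Rate effect after 3 weeks.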

blackgrass = assay: Test Example 5: herbicidal effect by foliage application, plastic box (Table 20, symbol J); assay type: in vivo, blackgrass (Alopecurus myosuroides); settings: 320 g/ha, evaluated three weeks after application; for herbicidal effect on J: blackgrass (criteria 0-5): foliage application
Method in brief: as §1

wild oat = assay: Test Example 5: herbicidal effect by foliage application, plastic box (Table 20, symbol I); assay type: in vivo, wild oat (Avena fatua); settings: 320 g/ha, evaluated three weeks after application; for herbicidal effect on I: wild oat (criteria 0-5): foliage application
Method in brief: as §1

redroot pigweed = assay: Test Example 5: herbicidal effect by foliage application, plastic box (Table 20, symbol N); assay type: in vivo, redroot pigweed (Amaranthus retroflexus); settings: 320 g/ha, evaluated three weeks after application; for herbicidal effect on N: redroot pigweed (criteria 0-5): foliage application
Method in brief: as §1

windgrass = assay: Test Example 5: herbicidal effect by foliage application, plastic box (Table 20, symbol L); assay type: in vivo, windgrass (Apera spica-venti); settings: 320 g/ha, evaluated three weeks after application; for herbicidal effect on L: windgrass (criteria 0-5): foliage application
Method in brief: as §1

Italian ryegrass = assay: Test Example 5: herbicidal effect by foliage application, plastic box (Table 20, symbol K); assay type: in vivo, Italian ryegrass (Lolium multiflorum); settings: 320 g/ha, evaluated three weeks after application; for herbicidal effect on K: Italian ryegrass (criteria 0-5): foliage application
Method in brief: as §1

barnyard grass [1] = assay: Test Example 3: herbicidal effect by foliage application, Wagner pot (Table 18, symbol H); assay type: in vivo, barnyard grass (Echinochloa crus-galli); settings: for herbicidal effect on H: barnyard grass: amount of applied herbicide 320 g/ha
Method in brief: (§2)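 Plants were sown in alluvial soil held under 0.1–0.5 cm standing water and grown 14 days in a greenhouse at 25–30 °C. An emulsifiable formulation, water-diluted to the set dose, was then sprayed onto the foliage, and effects were scored three weeks later using previously defined criteria.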

green foxtail = assay: Test Example 5: herbicidal effect by foliage application, plastic box (Table 20, symbol G); assay type: in vivo, green foxtail (Setaria viridis); settings: 320 g/ha, evaluated three weeks after application; for herbicidal effect on G: green foxtail (criteria 0-5): foliage application
Method in brief: as §1

persian speedwell = assay: Test Example 5: herbicidal effect by foliage application, plastic box (Table 20, symbol R); assay type: in vivo, Persian speedwell (Veronica persica); settings: 320 g/ha, evaluated three weeks after application; for herbicidal effect on R: persian speedwell (criteria 0-5): foliage application
Method in brief: as §1

rice flat sedge = assay: Test Example 3: herbicidal effect by foliage application, Wagner pot (Table 18, symbol E); assay type: in vivo, rice flat sedge (Cyperus iria); settings: for herbicidal effect on E: rice flat sedge: amount of applied herbicide 320 g/ha
Method in brief: as §2

velvetleaf = assay: Test Example 5: herbicidal effect by foliage application, plastic box (Table 20, symbol M); assay type: in vivo, velvetleaf (Abutilon theophrasti); settings: 320 g/ha, evaluated three weeks after application; for herbicidal effect on M: velvetleaf (criteria 0-5): foliage application
Method in brief: as §1

chickweed = assay: Test Example 5: herbicidal effect by foliage application, plastic box (Table 20, symbol P); assay type: in vivo, common chickweed (Stellaria media); settings: 320 g/ha, evaluated three weeks after application; for herbicidal effect on P: chickweed (criteria 0-5): foliage application
Method in brief: as §1

lambsquarters = assay: Test Example 5: herbicidal effect by foliage application, plastic box (Table 20, symbol O); assay type: in vivo, lambsquarters (Chenopodium album); settings: 320 g/ha, evaluated three weeks after application; for herbicidal effect on O: lambsquarters (criteria 0-5): foliage application
Method in brief: as §1

Chinese sprangletop = assay: Test Example 3: herbicidal effect by foliage application, Wagner pot (Table 18, symbol D); assay type: in vivo, chinese sprangletop (Leptochloa chinensis); settings: for herbicidal effect on D: Chinese sprangletop: amount of applied herbicide 320 g/ha
Method in brief: as §2

barnyard grass [2] = assay: Test Example 5: herbicidal effect by foliage application, plastic box (Table 20, symbol H); assay type: in vivo, barnyard grass (Echinochloa crus-galli); settings: 320 g/ha, evaluated three weeks after application; for herbicidal effect on H: barnyard grass (criteria 0-5): foliage application
Method in brief: as §1

southern crabgrass = assay: Test Example 5: herbicidal effect by foliage application, plastic box (Table 20, symbol F); assay type: in vivo, southern crabgrass (Digitaria ciliaris); settings: 320 g/ha, evaluated three weeks after application; for herbicidal effect on F: southern crabgrass (criteria 0-5): foliage application
Method in brief: as §1

[3] = foliage application after 14-day growth

| Structure (SMILES) | herbicidal effect on Q: false cleavers (criteria 0-5) (false cleavers) | herbicidal effect on J: blackgrass (criteria 0-5) (blackgrass) | herbicidal effect on I: wild oat (criteria 0-5) (wild oat) | herbicidal effect on N: redroot pigweed (criteria 0-5) (redroot pigweed) | herbicidal effect on L: windgrass (criteria 0-5) (windgrass) | herbicidal effect on K: Italian ryegrass (criteria 0-5) (Italian ryegrass) | herbicidal effect on H: barnyard grass (barnyard grass [1]) | herbicidal effect on G: green foxtail (criteria 0-5) (green foxtail) | herbicidal effect on R: persian speedwell (criteria 0-5) (persian speedwell) | herbicidal effect on E: rice flat sedge (rice flat sedge) | herbicidal effect on M: velvetleaf (criteria 0-5) (velvetleaf) | herbicidal effect on P: chickweed (criteria 0-5) (chickweed) | herbicidal effect on O: lambsquarters (criteria 0-5) (lambsquarters) | herbicidal effect on D: Chinese sprangletop (Chinese sprangletop) | herbicidal effect on H: barnyard grass (criteria 0-5) (barnyard grass [2]) | herbicidal effect on F: southern crabgrass (criteria 0-5) (southern crabgrass) | also measured |
| --- | --- | --- | --- | --- | --- | --- | --- | --- | --- | --- | --- | --- | --- | --- | --- | --- | --- |
| Cc1ccc2sc(-c3ccc4c(c3)OCCO4)c(-c3c(O)c(C)nn(C)c3=O)c2c1 [2-158] | 0 (Herbicidal rate of 5% or less (almost no effect)) | 0 (Herbicidal rate of 5% or less (almost no effect)) | 0 (Herbicidal rate of 5% or less (almost no effect)) | 0 (Herbicidal rate of 5% or less (almost no effect)) | 0 (Herbicidal rate of 5% or less (almost no effect)) | 0 (Herbicidal rate of 5% or less (almost no effect)) | 0 (Herbicidal rate of 5% or less (almost no effect)) | 0 (Herbicidal rate of 5% or less (almost no effect)) | 5 (Herbicidal rate of 90% or more (almost completely withered)) | 4 (Herbicidal rate of 70% or more and less than 90%) | 2 (Herbicidal rate of 20% or more and less than 40%) | 5 (Herbicidal rate of 90% or more (almost completely withered)) | 0 (Herbicidal rate of 5% or less (almost no effect)) | 1 (Herbicidal rate of 5% or more and less than 20%) | 0 (Herbicidal rate of 5% or less (almost no effect)) | 0 (Herbicidal rate of 5% or less (almost no effect)) |  |
| CCCC(=O)Oc1c(C)nn(C)c(=O)c1-c1c(-c2ccc3c(c2)OCCO3)sc2ccc(C)cc12 [2-159] | 0 (Herbicidal rate of 5% or less (almost no effect)) | 0 (Herbicidal rate of 5% or less (almost no effect)) | 0 (Herbicidal rate of 5% or less (almost no effect)) | 5 (Herbicidal rate of 90% or more (almost completely withered)) | 0 (Herbicidal rate of 5% or less (almost no effect)) | 0 (Herbicidal rate of 5% or less (almost no effect)) | 0 (Herbicidal rate of 5% or less (almost no effect)) | 0 (Herbicidal rate of 5% or less (almost no effect)) | 4 (Herbicidal rate of 70% or more and less than 90%) | 3 (Herbicidal rate of 40% or more and less than 70%) | 2 (Herbicidal rate of 20% or more and less than 40%) | 4 (Herbicidal rate of 70% or more and less than 90%) | 0 (Herbicidal rate of 5% or less (almost no effect)) | 0 (Herbicidal rate of 5% or less (almost no effect)) | 0 (Herbicidal rate of 5% or less (almost no effect)) | 0 (Herbicidal rate of 5% or less (almost no effect)) |  |
| CCCC(=O)Oc1c(C)nn(C)c(=O)c1-c1c(-c2ccc(C(F)(F)F)cc2)sc2cc(Cl)ccc12 [3-146] |  |  |  |  |  |  |  |  |  |  |  |  |  |  |  |  | herbicidal effect on Q: false cleavers (evaluation grade 0-5) (false cleavers; [3]): 1 (Herbicidal rate of 5% or more and less than 20%); herbicidal effect on J: blackgrass (evaluation grade 0-5) (blackgrass; [3]): 0 (Herbicidal rate of 5% or less (almost no effect)); herbicidal effect on I: wild oat (evaluation grade 0-5) (wild oat; [3]): 0 (Herbicidal rate of 5% or less (almost no effect)); herbicidal effect on N: redroot pigweed (evaluation grade 0-5) (redroot pigweed; [3]): 3 (Herbicidal rate of 40% or more and less than 70%); herbicidal effect on L: windgrass (evaluation grade 0-5) (windgrass; [3]): 0 (Herbicidal rate of 5% or less (almost no effect)); herbicidal effect on K: Italian ryegrass (evaluation grade 0-5) (Italian ryegrass; [3]): 0 (Herbicidal rate of 5% or less (almost no effect)); herbicidal effect on barnyard grass (H) (barnyard grass [1]; 320 g/ha): 3 (Herbicidal rate of 40% or more and less than 70%); herbicidal effect on G: green foxtail (evaluation grade 0-5) (green foxtail; [3]): 2 (Herbicidal rate of 20% or more and less than 40%); herbicidal effect on R: persian speedwell (evaluation grade 0-5) (persian speedwell; [3]): 4 (Herbicidal rate of 70% or more and less than 90%); herbicidal effect on rice flat sedge (E) (rice flat sedge; 320 g/ha): 3 (Herbicidal rate of 40% or more and less than 70%); herbicidal effect on M: velvetleaf (evaluation grade 0-5) (velvetleaf; [3]): 0 (Herbicidal rate of 5% or less (almost no effect)); herbicidal effect on P: chickweed (evaluation grade 0-5) (chickweed; [3]): 5 (Herbicidal rate of 90% or more (almost completely withered)); herbicidal effect on O: lambsquarters (evaluation grade 0-5) (lambsquarters; [3]): 3 (Herbicidal rate of 40% or more and less than 70%); herbicidal effect on Chinese sprangletop (D) (Chinese sprangletop; 320 g/ha): 3 (Herbicidal rate of 40% or more and less than 70%); herbicidal effect on H: barnyard grass (evaluation grade 0-5) (barnyard grass [2]; [3]): 0 (Herbicidal rate of 5% or less (almost no effect)); herbicidal effect on F: southern crabgrass (evaluation grade 0-5) (southern crabgrass; [3]): 1 (Herbicidal rate of 5% or more and less than 20%) |
